Assay results reported in paper PMC2966298 (Journal of medicinal chemistry, 2010).
“Also recorded” adds a separate entry of the source. One block for each molecule: values may come before it.

Experiments:
[1] = molecular target: T1, 15-hLO-1 (Homo sapiens, UniProt P16050); experiment: Steady-state inhibition kinetics; settings: replot of 1/Vmax vs inhibitor; AA substrate, 0.01% Triton X-100
T1 sequence (P16050 1-662): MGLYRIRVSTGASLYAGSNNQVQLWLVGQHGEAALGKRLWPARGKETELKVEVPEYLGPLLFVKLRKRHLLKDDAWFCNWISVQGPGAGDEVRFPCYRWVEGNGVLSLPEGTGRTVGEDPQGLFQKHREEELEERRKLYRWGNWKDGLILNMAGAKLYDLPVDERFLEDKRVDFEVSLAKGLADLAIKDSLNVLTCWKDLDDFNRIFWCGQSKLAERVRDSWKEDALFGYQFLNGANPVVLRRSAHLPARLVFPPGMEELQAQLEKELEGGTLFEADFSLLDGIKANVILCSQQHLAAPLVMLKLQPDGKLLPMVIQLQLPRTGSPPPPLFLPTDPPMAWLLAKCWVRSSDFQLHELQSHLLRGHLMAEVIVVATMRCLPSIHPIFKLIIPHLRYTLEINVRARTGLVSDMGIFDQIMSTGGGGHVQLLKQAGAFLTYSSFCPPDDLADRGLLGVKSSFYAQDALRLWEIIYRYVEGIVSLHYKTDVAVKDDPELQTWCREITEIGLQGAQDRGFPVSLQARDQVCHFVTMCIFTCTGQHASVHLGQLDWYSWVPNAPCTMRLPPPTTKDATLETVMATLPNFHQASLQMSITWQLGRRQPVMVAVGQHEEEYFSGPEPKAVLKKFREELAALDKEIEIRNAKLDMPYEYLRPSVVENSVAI

[2] = molecular target: T2, Human reticulocyte 15-lipoxygenase-1 (15-hLO-1) (Homo sapiens, UniProt P16050); experiment: Lipoxygenase UV-Vis assay; settings: for fold loss in activity against 15-hLO-1 relative to lead 5: compared with compound 5 (19 nM)
T2 sequence (P16050 1-662): T1 sequence (P16050 1-662)

[3] = molecular target: T1, 15-hLO-1; experiment: Reversibility of inhibition; format: biochemical; settings: 50 μM inhibitor, 10 min incubation, then 2 h dialysis
[4] = Solubility as noted during biochemical characterization; format: physicochemical; settings: noted where Ki^app could not be obtained accurately
[5] = molecular target: T1, 15-hLO-1; settings: cited from earlier work

Structure (SMILES): O=C(OCC#CCSc1nnc(-c2cccc3ccccc23)o1)c1c[nH]cn1 [Analogue 16]
Ki’ (dissociation from the secondary site) [1]: 8100 ± 900 nM | fold loss in activity against 15-hLO-1 relative to lead 5 [2]: approximately 70 fold

Structure (SMILES): O=C(OCC#CCSc1nnc(-c2cccc3ccccc23)o1)c1ccccc1F [Analogue 25]
reversibility of inhibition [3]: reversible

Structure (SMILES): O=C(OCC#CCSc1nnc(-c2cccc3ccccc23)s1)c1cccs1 [Analogue 58]
solubility (in words) [4]: noticeably less soluble; also recorded: low solubility

Structure (SMILES): O=C(CCC#CCSc1nnc(-c2cccc3ccccc23)o1)c1ccccc1 [Analogue 67]
solubility (in words) [4]: reduced solubility; also recorded: low solubility

Structure (SMILES): COc1ccc(-c2oc3cc(OC)c(OC)c(OC)c3c(=O)c2OC)cc1OC [hexamethoxyflavone]
IC50 [5]: 50000 nM

More lines, now with the values ahead:

IC50 [2]: < 10 nM
Structure (SMILES): O=C(OCC#CCSc1nnc(-c2ccc(F)cc2)o1)c1ccc(F)cc1 [Analogue 47]

solubility (in words) [4]: low solubility
Structure (SMILES): O=C(OCC#CCSc1nnc(-c2cc3ccccc3cc2O)o1)c1ccc(F)cc1 [Analogue 53]

IC50 [2]: 2000 nM | fold loss in activity against 15-hLO-1 relative to lead 5 [2]: 100 fold
Structure (SMILES): O=C(NCC#CCSc1nnc(-c2cccc3ccccc23)o1)c1cccs1 [Analogue 56]

IC50 [2]: 1300 nM
Structure (SMILES): O=C(OCC#CCNc1nnc(-c2cccc3ccccc23)o1)c1cccs1 [Analogue 60]

IC50 [2]: > 100000 nM
Structure (SMILES): O=C(OCc1ccc(CSc2nnc(-c3cccc4ccccc34)o2)cc1)c1ccc(F)cc1 [Analogue 62]

activity against 15-hLO-1 (in words) [2]: complete loss in activity
Structure (SMILES): Fc1ccc(COCC#CCSc2nnc(-c3cccc4ccccc34)o2)cc1 [Analogue 66]
